Experiments:
[1] = molecular target: BuChE from human serum (hBuChE) (Homo sapiens, UniProt P06276); assay: biochemical; format: biochemical; details: for IC50: read-out: IC50 (µM) ± SEM hBuChE
[2] = molecular target: human recombinant AChE (hAChE) (Homo sapiens, UniProt P22303); assay: biochemical; format: biochemical; details: for SI: selectivity index for AChE: calculated as IC50 hBuChE/hAChE ratio; for IC50: read-out: IC50 (µM) ± SEM hAChE
[3] = system: SH-SY5Y cells; assay: Antioxidant activity, ROS formation induced by t-BuOOH (H2DCF-DA probe); format: cell-based; details: Homo sapiens, 1.25 µM compound for 24 h, then t-BuOOH 100 µM for 30 min, read-out: inhibition percentage in ROS formation induced by t-BuOOH
[4] = system: SH-SY5Y cells; format: cell-based; details: 24 h treatment, 2.5–80 µM tested, MTT assay, SH-SY5Y cells (data not shown)
[5] = system: SH-SY5Y cells; assay: Glutathione (GSH) levels (MCB probe); format: cell-based, human; details: 1.25 µM compound for 24 h, vs. control
[6] = system: SH-SY5Y cells; assay: Neuroprotective activity toward Aβ1–42 oligomers, MTT formazan exocytosis assay; format: cell-based, human; details: 1.25 µM compound with OAβ1–42 10 µM for 4 h
[7] = BuChE from human serum, 20 min preincubation at 37 °C, pH 8.0, n.a. = not active, inhibition lower than 15% at the highest tested concentration
[8] = human recombinant AChE, 20 min preincubation at 37 °C, pH 8.0, n.a. = not active, inhibition lower than 15% at the highest tested concentration

human recombinant AChE (hAChE), sequence (P22303 32-614): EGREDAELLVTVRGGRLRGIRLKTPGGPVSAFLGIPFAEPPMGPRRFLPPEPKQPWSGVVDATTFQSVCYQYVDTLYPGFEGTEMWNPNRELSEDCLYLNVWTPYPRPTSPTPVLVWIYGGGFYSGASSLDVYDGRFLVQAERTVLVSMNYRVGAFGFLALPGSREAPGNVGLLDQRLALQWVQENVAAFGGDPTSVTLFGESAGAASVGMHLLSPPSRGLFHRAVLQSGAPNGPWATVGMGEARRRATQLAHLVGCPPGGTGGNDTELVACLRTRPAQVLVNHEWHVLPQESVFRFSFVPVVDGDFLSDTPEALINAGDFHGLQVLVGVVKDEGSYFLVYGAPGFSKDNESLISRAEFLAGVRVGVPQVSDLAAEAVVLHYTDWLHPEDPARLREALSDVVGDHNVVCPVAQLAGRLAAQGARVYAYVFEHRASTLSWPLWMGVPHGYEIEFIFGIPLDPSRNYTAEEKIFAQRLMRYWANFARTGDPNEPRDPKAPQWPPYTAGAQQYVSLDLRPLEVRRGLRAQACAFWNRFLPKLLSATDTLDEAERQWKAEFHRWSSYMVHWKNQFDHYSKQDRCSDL
BuChE from human serum (hBuChE), sequence (P06276 29-602): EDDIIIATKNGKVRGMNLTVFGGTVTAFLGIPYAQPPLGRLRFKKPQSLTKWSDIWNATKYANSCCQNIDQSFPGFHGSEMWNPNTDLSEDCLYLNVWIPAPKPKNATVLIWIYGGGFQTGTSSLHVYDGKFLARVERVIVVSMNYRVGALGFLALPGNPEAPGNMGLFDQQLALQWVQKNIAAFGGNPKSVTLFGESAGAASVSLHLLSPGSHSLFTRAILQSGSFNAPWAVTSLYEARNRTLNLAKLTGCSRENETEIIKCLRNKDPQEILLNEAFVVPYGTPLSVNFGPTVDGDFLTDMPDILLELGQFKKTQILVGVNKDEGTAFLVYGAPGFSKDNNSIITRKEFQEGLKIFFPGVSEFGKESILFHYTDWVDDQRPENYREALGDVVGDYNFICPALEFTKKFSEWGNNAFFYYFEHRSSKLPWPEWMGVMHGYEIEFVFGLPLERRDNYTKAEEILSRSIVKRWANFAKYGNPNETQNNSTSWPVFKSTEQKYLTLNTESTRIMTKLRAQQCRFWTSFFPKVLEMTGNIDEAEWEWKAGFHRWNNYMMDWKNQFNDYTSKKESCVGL

SMILES | IC50 [1, 7] [µM] | SI: selectivity index for AChE [2] | IC50 [2, 8] [µM] | other results
CN(CCCCCCCOc1ccc(C=CC(=O)c2ccc(OCCN3CCc4ccccc4C3)cc2)cc1)Cc1ccccc1 [compound 8, 3-(4-((7-(Benzyl(methyl)amino)heptyl)oxy)phenyl)-1-(4-(2-(3,4-dihydroisoquinolin-2(1H)-yl)ethoxy)phenyl)prop-2-en-1-one] | 3.87 ± 0.3 | 0.23 | 16.5 ± 2.6 | 
CN(CCCCCCCOc1ccc(C=CC(=O)c2ccc(OCCN3CCCCC3)cc2)cc1)Cc1ccccc1 [compound 7, 3-(4-((7-(Benzyl(methyl)amino)heptyl)oxy)phenyl)-1-(4-(2-(piperidin-1-yl)ethoxy)phenyl)prop-2-en-1-one] | 19.7 ± 0.6 | 15.8 | 1.25 ± 0.06 | 
CCN(CC)CCCOc1ccc(C(=O)CCc2ccc(OCCCCCCCN(C)Cc3ccccc3)cc2)cc1 [compound 17, 3-(4-((7-(Benzyl(methyl)amino)heptyl)oxy)phenyl)-1-(4-(3-(diethylamino)propoxy)phenyl)-propan-1-one] | 5.04 ± 0.3 | 3.04 | 1.66 ± 0.09 | inhibition at 1.25 µM [3]: 23%; concentrations that did not affect neuronal viability [4]: up to 2.5 µM; effect on GSH levels [5]: significantly increased GSH levels; neuroprotective activity toward OAβ1–42 induced toxicity (neuronal viability) [6]: No neuroprotective effect
CCN(CC)CCOc1ccc(C(=O)C=Cc2ccc(OCCCCCCCN(C)Cc3ccccc3)cc2)cc1 [compound 3, 3-(4-((7-(Benzyl(methyl)amino)heptyl)oxy)phenyl)-1-(4-(2-(diethylamino)ethoxy)phenyl)-prop-2-en-1-one] | 19.9 ± 5.5 | 28.4 | 0.7 ± 0.09 | 
CCN(CC)CCCCOc1ccc(C(=O)C=Cc2ccc(OCCCCCCCN(C)Cc3ccccc3)cc2)cc1 [compound 5, 3-(4-((7-(Benzyl(methyl)amino)heptyl)oxy)phenyl)-1-(4-(4-(diethylamino)butoxy)phenyl)prop-2-en-1-one] | 3.7 ± 0.08 | 3.5 | 1.06 ± 0.08 | 
CCN(CC)CCCOc1ccc(C(=O)C=Cc2ccc(OCCCCCCCN(C)Cc3ccccc3)cc2)cc1 [compound 4, 3-(4-((7-(Benzyl(methyl)amino)heptyl)oxy)phenyl)-1-(4-(3-(diethylamino)propoxy)phenyl)-prop-2-en-1-one] | 2.38 ± 0.05 | 2.6 | 0.92 ± 0.07 | inhibition at 1.25 µM [3]: 27%; concentrations that did not affect neuronal viability [4]: up to 2.5 µM; effect on GSH levels [5]: significantly increased GSH levels; neuroprotective activity toward OAβ1–42 induced toxicity (neuronal viability) [6]: partially counteracted the neurotoxic effects
CN(CCCCCCCOc1ccc(C=CC(=O)c2ccc(OCCN3CCC(O)(c4ccc(Cl)cc4)CC3)cc2)cc1)Cc1ccccc1 [compound 11, 3-(4-((7-(Benzyl(methyl)amino)heptyl)oxy)phenyl)-1-(4-(2-(4-(4-chlorophenyl)-4-hydroxypiperidin-1-yl)ethoxy)phenyl)prop-2-en-1-one] |  |  |  | IC50 (µM) ± SEM hBuChE ([1]; pH 8): inactive; IC50 (µM) ± SEM hAChE ([2]; pH 8): inactive
CCN(CC)CCCOc1cccc(C(=O)C=Cc2ccc(OCCCCCCCN(C)Cc3ccccc3)cc2)c1 [compound 14, 3-(4-((7-(Benzyl(methyl)amino)heptyl)oxy)phenyl)-1-(3-(3-(diethylamino)propoxy)phenyl)-prop-2-en-1-one] | 1.82 ± 0.05 | 0.31 | 5.78 ± 0.67 | 
CN(CCCCCCCOc1ccc(C=CC(=O)c2ccc(OCCN3CCC(n4c(=O)[nH]c5ccccc54)CC3)cc2)cc1)Cc1ccccc1 [compound 9, 1-(1-(2-(4-(3-(4-((7-(Benzyl(methyl)amino)heptyl)oxy)phenyl)acryloyl)phenoxy)ethyl)-piperidin-4-yl)-1,3-dihydro-2H-benzo[d]imidazol-2-one] | 3.93 ± 0.2 | 0.29 | 13.5 ± 2.3 | 
CN(CCCCCCCOc1ccc(C=CC(=O)c2ccc(OCCN3CCC(c4ccccc4)CC3)cc2)cc1)Cc1ccccc1 [compound 10, 3-(4-((7-(Benzyl(methyl)amino)heptyl)oxy)phenyl)-1-(4-(2-(4-phenylpiperidin-1-yl)ethoxy)-phenyl)prop-2-en-1-one] |  |  |  | IC50 (µM) ± SEM hBuChE [1, 7]: inactive; IC50 (µM) ± SEM hAChE [2, 8]: inactive
CCN(CC)CCOc1cccc(C(=O)C=Cc2ccc(OCCCCCCCN(C)Cc3ccccc3)cc2)c1 [compound 13, 3-(4-((7-(Benzyl(methyl)amino)heptyl)oxy)phenyl)-1-(3-(2-(diethylamino)ethoxy)phenyl)-prop-2-en-1-one] | 0.92 ± 0.04 | 0.62 | 1.47 ± 0.11 | 
CCN(CC)CCOc1ccc(C(=O)CCc2ccc(OCCCCCCCN(C)Cc3ccccc3)cc2)cc1 [compound 16, 3-(4-((7-(Benzyl(methyl)amino)heptyl)oxy)phenyl)-1-(4-(2-(diethylamino)ethoxy)phenyl)-propan-1-one] | 20.2 ± 1.7 | 3.25 | 6.21 ± 0.32 | 
CN(CCCCCCCOc1ccc(C=CC(=O)c2ccc(OCCN3CCOCC3)cc2)cc1)Cc1ccccc1 [compound 6, 3-(4-((7-(Benzyl(methyl)amino)heptyl)oxy)phenyl)-1-(4-(2-morpholinoethoxy)phenyl)prop-2-en-1-one] | 11 ± 0.5 | 0.021 | 511 ± 37 | fold worse hAChE inhibition than compound 7 ([2]; morpholino vs piperidine derivative): about 500 fold
COc1cccc(C(=O)C=Cc2ccc(OCCCCCCCN(C)Cc3ccccc3)cc2)c1 [compound 12, 3-(4-((7-(Benzyl(methyl)amino)heptyl)oxy)phenyl)-1-(3-methoxyphenyl)prop-2-en-1-one] | 8.58 ± 0.35 | 0.08 | 105 ± 17 | 
COc1ccc(C(=O)C=Cc2ccc(OCCCCCCCN(C)Cc3ccccc3)cc2)cc1 [compound 2, 3-(4-((7-(Benzyl(methyl)amino)heptyl)oxy)phenyl)-1-(4-methoxyphenyl)prop-2-en-1-one] | 2.85 ± 0.7 | 0.03 | 98.5 ± 8.8 | inhibition at 1.25 µM [3]: 16%; concentrations that did not affect neuronal viability [4]: up to 2.5 µM; effect on GSH levels [5]: decreased GSH basal levels; neuroprotective activity toward OAβ1–42 induced toxicity (neuronal viability) [6]: reinforced the neurotoxic effects
CCN(CC)Cc1ccc(C(=O)C=Cc2ccc(OCCCCCCCN(C)Cc3ccccc3)cc2)cc1 [compound 1, 3-(4-((7-(Benzyl(methyl)amino)heptyl)oxy)phenyl)-1-(4-((diethylamino)methyl)phenyl)prop-2-en-1-one] | 8.83 ± 0.58 | 3.14 | 2.81 ± 0.29 | fold increase in hAChE inhibitory activity ([2]; methylendiethylamino group in place of the methoxy group (compounds 2, 12)): 35 fold
CCN(CC)CCCCOc1ccc(C(=O)CCc2ccc(OCCCCCCCN(C)Cc3ccccc3)cc2)cc1 [compound 18, 3-(4-((7-(Benzyl(methyl)amino)heptyl)oxy)phenyl)-1-(4-(4-(diethylamino)butoxy)phenyl)-propan-1-one] | 12.4 ± 2.4 | 5.04 | 2.46 ± 0.11 | 
